Measured values as given in the NIST ThermoML archive (doi:10.1021/acs.jced.7b01030).
Where “and” joins values, the source holds several entries; their conditions need not be identical. Equal entries are not always repeated. Numbers after ± are expanded uncertainties.

Conditions: Liquid; for self diffusion coefficient: NMR spin-echo technique; for viscosity: Falling or rolling sphere viscometry; for mass density: Vibrating tube method

OCC(F)(F)F [2,2,2-trifluoroethanol]
Conditions | mass density | self diffusion coefficient [m2/s] | viscosity
253.24 K, 100 kPa | – | 1.33e-10 | –
258.45 K, 100 kPa | – | 1.68e-10 | –
258.49 K, 100 kPa | – | 1.68e-10 | –
263.15 K, 100 kPa | – | – | 5.502 ± 0.23 mPa·s and 5.485 ± 0.23 mPa·s
263.15 K, 9900 kPa | – | – | 6.125 ± 0.25 mPa·s
263.15 K, 10000 kPa | – | – | 6.134 ± 0.25 mPa·s
263.15 K, 24500 kPa | – | – | 7.159 ± 0.29 mPa·s
263.15 K, 24600 kPa | – | – | 7.168 ± 0.29 mPa·s
263.15 K, 50500 kPa | – | – | 9.212 ± 0.38 mPa·s
263.15 K, 50600 kPa | – | – | 9.203 ± 0.38 mPa·s
263.15 K, 75500 kPa | – | – | 11.52 ± 0.47 mPa·s and 11.51 ± 0.47 mPa·s
263.15 K, 100200 kPa | – | – | 14.28 ± 0.58 mPa·s
263.15 K, 101000 kPa | – | – | 14.38 ± 0.59 mPa·s
263.15 K, 131600 kPa | – | – | 18.4 ± 0.75 mPa·s
263.15 K, 132200 kPa | – | – | 18.53 ± 0.76 mPa·s
263.37 K, 100 kPa | – | 2.05e-10 | –
263.39 K, 100 kPa | – | 2.06e-10 | –
268.15 K, 100 kPa | – | – | 4.517 ± 0.19 mPa·s and 4.513 ± 0.19 mPa·s
272.82 K, 79000 kPa | – | 1.66e-10 | –
272.84 K, 25700 kPa | – | 2.48e-10 | –
272.86 K, 100 kPa | – | 3.06e-10 | –
272.87 K, 100 kPa | – | 3.06e-10 | –
272.9 K, 200500 kPa | – | 7.6e-11 | –
272.91 K, 299000 kPa | – | 4.23e-11 | –
272.93 K, 249000 kPa | – | 5.7e-11 | –
272.99 K, 150000 kPa | – | 1.04e-10 | –
273.09 K, 98000 kPa | – | 1.46e-10 | –
273.15 K, 100 kPa | 1424.26 ± 0.64 kg/m3 | – | 3.798 ± 0.15 mPa·s [middle of 5 runs]
273.15 K, 10400 kPa | – | – | 4.226 ± 0.17 mPa·s
273.15 K, 10500 kPa | – | – | 4.224 ± 0.17 mPa·s
273.15 K, 25500 kPa | – | – | 4.909 ± 0.2 mPa·s and 4.905 ± 0.2 mPa·s
273.15 K, 50500 kPa | – | – | 6.179 ± 0.25 mPa·s and 6.166 ± 0.25 mPa·s
273.15 K, 75000 kPa | – | – | 7.57 ± 0.47 mPa·s
273.15 K, 75500 kPa | – | – | 7.582 ± 0.65 mPa·s
273.15 K, 99800 kPa | – | – | 9.373 ± 0.98 mPa·s
273.15 K, 100300 kPa | – | – | 9.375 ± 0.98 mPa·s
273.15 K, 125600 kPa | – | – | 11.37 ± 0.46 mPa·s and 11.45 ± 0.47 mPa·s
273.15 K, 125700 kPa | – | – | 11.39 ± 0.46 mPa·s
273.15 K, 150300 kPa | – | – | 13.73 ± 0.56 mPa·s
273.15 K, 150700 kPa | – | – | 13.79 ± 0.56 mPa·s
273.15 K, 176200 kPa | – | – | 16.53 ± 0.67 mPa·s
273.15 K, 176400 kPa | – | – | 16.61 ± 0.68 mPa·s
273.15 K, 201100 kPa | – | – | 19.6 ± 0.8 mPa·s and 19.51 ± 0.79 mPa·s
273.15 K, 233500 kPa | – | – | 24.25 ± 0.99 mPa·s
273.15 K, 233700 kPa | – | – | 24.29 ± 0.99 mPa·s
273.25 K, 100 kPa | – | 3.07e-10 | –
273.25 K, 50000 kPa | – | 2.04e-10 | –
273.8 K, 100 kPa | – | 3.3e-10 | –
278.15 K, 100 kPa | 1416.08 ± 0.64 kg/m3 | – | 3.311 ± 0.14 mPa·s and 3.305 ± 0.14 mPa·s
278.59 K, 100 kPa | – | 3.94e-10 | –
278.63 K, 100 kPa | – | 3.87e-10 | –
283.15 K, 100 kPa | 1407.84 ± 0.64 kg/m3 and 1407.85 ± 0.64 kg/m3 | – | 2.746 ± 0.11 mPa·s and 2.749 ± 0.11 mPa·s
288.15 K, 100 kPa | 1399.56 ± 0.63 kg/m3 | – | 2.363 ± 0.096 mPa·s and 2.368 ± 0.097 mPa·s
288.53 K, 100 kPa | – | 5.41e-10 | –
288.56 K, 100 kPa | – | 5.3e-10 | –
293.15 K, 100 kPa | 1391.18 ± 0.63 kg/m3 and 1391.19 ± 0.63 kg/m3 | – | 2.077 ± 0.085 mPa·s [middle of 4 runs]
298.15 K, 100 kPa | 1382.73 ± 0.63 kg/m3 and 1382.71 ± 0.63 kg/m3 | – | 1.781 ± 0.073 mPa·s [middle of 7 runs]
298.15 K, 10200 kPa | – | – | 1.98 ± 0.081 mPa·s and 1.981 ± 0.081 mPa·s
298.15 K, 25400 kPa | – | – | 2.267 ± 0.092 mPa·s and 2.264 ± 0.092 mPa·s
298.15 K, 49900 kPa | – | – | 2.755 ± 0.11 mPa·s
298.15 K, 50200 kPa | – | – | 2.773 ± 0.11 mPa·s
298.15 K, 74900 kPa | – | – | 3.317 ± 0.14 mPa·s
298.15 K, 75100 kPa | – | – | 3.314 ± 0.14 mPa·s
298.15 K, 100400 kPa | – | – | 3.929 ± 0.16 mPa·s
298.15 K, 100600 kPa | – | – | 3.938 ± 0.16 mPa·s
298.15 K, 125200 kPa | – | – | 4.612 ± 0.19 mPa·s
298.15 K, 125400 kPa | – | – | 4.61 ± 0.19 mPa·s
298.15 K, 150100 kPa | – | – | 5.347 ± 0.22 mPa·s
298.15 K, 175000 kPa | – | – | 6.198 ± 0.25 mPa·s
298.15 K, 175200 kPa | – | – | 6.197 ± 0.25 mPa·s
298.15 K, 197500 kPa | – | – | 6.965 ± 0.49 mPa·s
298.15 K, 197800 kPa | – | – | 6.993 ± 0.52 mPa·s
298.15 K, 200700 kPa | – | – | 7.21 ± 0.38 mPa·s
298.15 K, 201700 kPa | – | – | 7.297 ± 0.8 mPa·s
298.15 K, 224400 kPa | – | – | 8.254 ± 0.63 mPa·s
298.15 K, 226100 kPa | – | – | 8.33 ± 0.57 mPa·s
298.15 K, 256900 kPa | – | – | 9.931 ± 0.4 mPa·s
298.15 K, 258400 kPa | – | – | 10.03 ± 0.41 mPa·s
298.15 K, 276700 kPa | – | – | 10.98 ± 0.45 mPa·s
298.15 K, 277800 kPa | – | – | 11.04 ± 0.45 mPa·s
298.15 K, 300600 kPa | – | – | 12.3 ± 0.5 mPa·s
298.15 K, 301600 kPa | – | – | 12.43 ± 0.51 mPa·s
298.15 K, 325400 kPa | – | – | 13.99 ± 0.57 mPa·s
298.15 K, 326500 kPa | – | – | 14.06 ± 0.57 mPa·s
298.15 K, 348800 kPa | – | – | 15.77 ± 0.64 mPa·s
298.15 K, 351100 kPa | – | – | 15.95 ± 0.65 mPa·s
298.26 K, 100 kPa | – | 6.91e-10 | –
298.32 K, 100 kPa | – | 6.96e-10 | –
298.34 K, 100 kPa | – | 7.21e-10 | –
298.35 K, 100 kPa | – | 7.06e-10 | –
298.36 K, 100 kPa | – | 6.95e-10 | –
298.55 K, 100 kPa | – | 6.99e-10 | –
299.89 K, 25000 kPa | – | 6.08e-10 | –
299.91 K, 50000 kPa | – | 5.11e-10 | –
299.91 K, 72500 kPa | – | 4.38e-10 | –
299.92 K, 100 kPa | – | 7.35e-10 | –
299.92 K, 300000 kPa | – | 1.32e-10 | –
299.93 K, 98000 kPa | – | 3.77e-10 | –
299.93 K, 199000 kPa | – | 2.14e-10 | –
299.94 K, 149000 kPa | – | 2.87e-10 | –
299.94 K, 350000 kPa | – | 1.09e-10 | –
299.98 K, 250000 kPa | – | 1.72e-10 | –
300.4 K, 100 kPa | – | 7.52e-10 | –
303.15 K, 100 kPa | – | – | 1.574 ± 0.064 mPa·s and 1.565 ± 0.064 mPa·s
